The values below come from patent US9034882B2, “Inhibitors of human immunodeficiency virus replication” (priority 2012, dated 2015).

This experiment has as its system recombinant NL-Rluc virus. In words: Inhibition of HIV replication (NL-RLuc luciferase reporter virus in MT-2 cells). In kind it is cell-based. The settings on record: Human immunodeficiency virus 1, MT2, 120 h. On the technique in general: In a reporter assay the amount or activity of a reporter protein is the signal.

Molecules are shown by their SMILES. Like-named read-outs stand apart in the source and are kept apart here. Bounds are passed on as bounds.

Take `Cc1nc2cc(-c3ccccc3)nn2c(N2CCc3ccccc3C2)c1C(OC(C)(C)C)C(=O)O` (stereo not shown) [Example 3, 2-(tert-butoxy)-2-(7-(3,4-dijydroisoquinolin-2(1H)-yl)-5-methyl-2-phenylpyrazolo[1,5a]pyrimidin-6-yl)acetic acid]: the EC50 (read-out: Activity) is more than 1 µM. Same read-out and setting: the figure for `Cc1nc2cc(-c3cccc(-c4ccccc4)c3)nn2c(N2CCC3(C)CC3C2)c1[C@H](OC(C)(C)C)C(=O)O` (stereo partly drawn) [Example 61, (2S)-2-(2-([1,1′-Biphenyl]-3-yl)-5-methyl-7-(6-methyl-3-azabicyclo[4.1.0]heptan-3-yl)pyrazolo[1,5-a]pyrimidin-6-yl)-2-(tert-butoxy)acetic acid] is 0.1 to 1 µM; for `Cc1nc2cc(-c3ccccc3)nn2c(N2CC[C@@H]3CCCC[C@@H]3C2)c1C(OC(C)(C)C)C(=O)O` (stereo partly shown) [Example 14] it is 0.1 to 1 µM. In the case of `Cc1nc2cc(-c3ccccc3)nn2c(N2CCCCC2)c1C(OC(C)(C)C)C(=O)O` (stereo not shown) [Example 2, 2-(tert-butoxy)-2-(7-(lpiperidin-1-yl)-5-methyl-2-phenylpyrazolo[1,5a]pyrimidin-6-yl)acetic acid], the EC50 runs as follows: (read-out: Activity) more than 1 µM; (read-out: EC50 μM) 5 µM. With `Cc1nc2cc(-c3cccc(-c4ccccc4)c3)nn2c(N2C3CCC2CN(C)C3)c1[C@H](OC(C)(C)C)C(=O)O` [Example 50, (S)-2-(2-([1,1′-Biphenyl]-3-yl)-5-methyl-7-((1R,5S)-3-methyl-3,8-diazabicyclo[3.2.4]octan-8-yl)pyrazolo[1,5-a]pyrimidin-6-yl)-2-(tert-butoxy)acetic acid], the EC50 was more than 1 µM (read-out: Activity) and 3.23 µM (read-out: EC50 μM).
